Source: PMC10620772, “Design, synthesis, and biological evaluation of new pyrimidine-5-carbonitrile derivatives as novel anti-cancer, dual EGFR^WT/COX-2 inhibitors with docking studies” (RSC Advances, 2023)

Assays:
Format in all cases: cell-based, human
[1] = system: HCT-15; experiment: NCI60 antitumor screening; settings: Homo sapiens; 10 μM single dose; HCT-15 (colon cancer); read-out: growth inhibition percent (GI%)
[2] = system: CCRF-CEM; experiment: NCI60 antitumor screening; settings: Homo sapiens; 10 μM single dose; CCRF-CEM (leukaemia); read-out: growth inhibition percent (GI%)
[3] = system: PC-3; experiment: NCI60 antitumor screening; settings: Homo sapiens; 10 μM single dose; PC-3 (prostate cancer); read-out: growth inhibition percent (GI%)
[4] = system: SN12C; experiment: NCI60 antitumor screening; settings: Homo sapiens; 10 μM single dose; SN12C (renal cancer); read-out: growth inhibition percent (GI%)
[5] = system: SK-MEL-2; experiment: NCI60 antitumor screening; settings: Homo sapiens; 10 μM single dose; SK-MEL-2 (melanoma); read-out: growth inhibition percent (GI%)
[6] = system: UO-31; experiment: NCI60 antitumor screening; settings: Homo sapiens; 10 μM single dose; UO-31 (renal cancer); read-out: growth inhibition percent (GI%)
[7] = system: HS 578T; experiment: NCI60 antitumor screening; settings: Homo sapiens; 10 μM single dose; HS 578T (breast cancer); read-out: growth inhibition percent (GI%)
[8] = system: NCI-H322M; experiment: NCI60 antitumor screening; settings: Homo sapiens; 10 μM single dose; NCI-H322M (non-small cell lung cancer); read-out: growth inhibition percent (GI%)
[9] = system: HL-60(TB); experiment: NCI60 antitumor screening; settings: Homo sapiens; 10 μM single dose; HL-60(TB) (leukaemia); read-out: growth inhibition percent (GI%)
[10] = system: HCC-2998; experiment: NCI60 antitumor screening; settings: Homo sapiens; 10 μM single dose; HCC-2998 (colon cancer); read-out: growth inhibition percent (GI%)
[11] = system: IGROV1; experiment: NCI60 antitumor screening; settings: Homo sapiens, IGROV-1; 10 μM single dose; IGROV1 (ovarian cancer); read-out: growth inhibition percent (GI%)
[12] = system: UACC-62; experiment: NCI60 antitumor screening; settings: Homo sapiens; 10 μM single dose; UACC-62 (melanoma); read-out: growth inhibition percent (GI%)
[13] = system: T-47D; experiment: NCI60 antitumor screening; settings: Homo sapiens, T47D; 10 μM single dose; T-47D (breast cancer); read-out: growth inhibition percent (GI%)
[14] = system: A498; experiment: NCI60 antitumor screening; settings: Homo sapiens; 10 μM single dose; A498 (renal cancer); read-out: growth inhibition percent (GI%)
[15] = system: HCT-116; experiment: NCI60 antitumor screening; settings: Homo sapiens; 10 μM single dose; HCT-116 (colon cancer); read-out: growth inhibition percent (GI%)
[16] = system: OVCAR-3; experiment: NCI60 antitumor screening; settings: Homo sapiens; 10 μM single dose; OVCAR-3 (ovarian cancer); read-out: growth inhibition percent (GI%)
[17] = system: ACHN; experiment: NCI60 antitumor screening; settings: Homo sapiens; 10 μM single dose; ACHN (renal cancer); read-out: growth inhibition percent (GI%)
[18] = system: COLO 205; experiment: NCI60 antitumor screening; settings: Homo sapiens; 10 μM single dose; COLO 205 (colon cancer); read-out: growth inhibition percent (GI%)
[19] = system: SK-MEL-28; experiment: NCI60 antitumor screening; settings: Homo sapiens; 10 μM single dose; SK-MEL-28 (melanoma); read-out: growth inhibition percent (GI%)
[20] = system: BT-549; experiment: NCI60 antitumor screening; settings: Homo sapiens; 10 μM single dose; BT-549 (breast cancer); read-out: growth inhibition percent (GI%)
[21] = system: HT29; experiment: NCI60 antitumor screening; settings: Homo sapiens, HT-29; 10 μM single dose; HT29 (colon cancer); read-out: growth inhibition percent (GI%)
[22] = system: OVCAR-5; experiment: NCI60 antitumor screening; settings: Homo sapiens; 10 μM single dose; OVCAR-5 (ovarian cancer); read-out: growth inhibition percent (GI%)
[23] = system: NCI/ADR-RES; experiment: NCI60 antitumor screening; settings: Homo sapiens; 10 μM single dose; NCI/ADR-RES (ovarian cancer); read-out: growth inhibition percent (GI%)
[24] = system: EKVX; experiment: NCI60 antitumor screening; settings: Homo sapiens; 10 μM single dose; EKVX (non-small cell lung cancer); read-out: growth inhibition percent (GI%)
[25] = system: SF-268; experiment: NCI60 antitumor screening; settings: Homo sapiens; 10 μM single dose; SF-268 (CNS cancer); read-out: growth inhibition percent (GI%)
[26] = system: SF-539; experiment: NCI60 antitumor screening; settings: Homo sapiens; 10 μM single dose; SF-539 (CNS cancer); read-out: growth inhibition percent (GI%)
[27] = system: OVCAR-4; experiment: NCI60 antitumor screening; settings: Homo sapiens; 10 μM single dose; OVCAR-4 (ovarian cancer); read-out: growth inhibition percent (GI%)
[28] = system: MOLT-4; experiment: NCI60 antitumor screening; settings: Homo sapiens; 10 μM single dose; MOLT-4 (leukaemia); read-out: growth inhibition percent (GI%)
[29] = system: SF-295; experiment: NCI60 antitumor screening; settings: Homo sapiens; 10 μM single dose; SF-295 (CNS cancer); read-out: growth inhibition percent (GI%)
[30] = system: NCI-H23; experiment: NCI60 antitumor screening; settings: Homo sapiens; 10 μM single dose; NCI-H23 (non-small cell lung cancer); read-out: growth inhibition percent (GI%)
[31] = system: NCI-H460; experiment: NCI60 antitumor screening; settings: Homo sapiens; 10 μM single dose; NCI-H460 (non-small cell lung cancer); read-out: growth inhibition percent (GI%)
[32] = system: NCI60 cell lines panel; experiment: NCI60 antitumor screening, full panel
In short: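 Single-concentration screen at 10 μM across the NCI60 panel (leukaemia, NSCLC, colon, CNS, melanoma, ovarian, renal, prostate, breast). Results are expressed as percent growth inhibition (GI%) of treated lines.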

[33] = system: M14; experiment: NCI60 antitumor screening; settings: Homo sapiens; 10 μM single dose; M14 (melanoma); read-out: growth inhibition percent (GI%)
[34] = system: SK-MEL-5; experiment: NCI60 antitumor screening; settings: Homo sapiens; 10 μM single dose; SK-MEL-5 (melanoma); read-out: growth inhibition percent (GI%)

Structure (SMILES): Cc1ccc(CSc2nc(-c3ccc(F)cc3)c(C#N)c(N3CCN(C)CC3)n2)cc1 [4l, 4-(4-Fluorophenyl)-2-((4-methylbenzyl)thio)-6-(4-methylpiperazin-1-yl) pyrimidine-5-carbonitrile]
- inhibition at 10 µM [1]: 10.3%
- inhibition at 10 µM [2]: 15.2%
- inhibition at 10 µM [3]: 24.2%
- inhibition at 10 µM [4]: 11.9%
- inhibition at 10 µM [5]: < 10%
- inhibition at 10 µM [6]: 17.6%
- inhibition at 10 µM [7]: 31.1%
- inhibition at 10 µM [8]: 18%
- inhibition at 10 µM [9]: 12.2%
- inhibition at 10 µM [10]: < 10%
- inhibition at 10 µM [11]: < 10%
- inhibition at 10 µM [12]: 13%
- inhibition at 10 µM [13]: 18.1%
- inhibition at 10 µM [14]: < 10%
- inhibition at 10 µM [15]: 13.1%
- inhibition at 10 µM [16]: < 10%
- inhibition at 10 µM [17]: 29.9%
- inhibition at 10 µM [18]: < 10%
- inhibition at 10 µM [19]: < 10%
- inhibition at 10 µM [20]: 10.8%
- inhibition at 10 µM [21]: 10.6%
- inhibition at 10 µM [22]: < 10%
- inhibition at 10 µM [23]: 12.7%
- inhibition at 10 µM [24]: 12.5%
- inhibition at 10 µM [25]: < 10%
- inhibition at 10 µM [26]: 31.8%
- inhibition at 10 µM [27]: < 10%
- inhibition at 10 µM [28]: 10.5%
- inhibition at 10 µM [29]: 17.6%
- inhibition at 10 µM [30]: < 10%
- inhibition at 10 µM [31]: < 10%
- One-dose activity over the NCI60 panel ([32]; 10 μM): moderate activity against numerous cell lines
- inhibition at 10 µM ([32]; Homo sapiens, 10 μM single dose, mean over NCI60 cell lines, read-out: Mean growth inhibition percent (GI%)): 11.2%
- inhibition at 10 µM [33]: < 10%
- inhibition at 10 µM [34]: < 10%
